Experiments:
Assay type in all cases: in vivo
Design in all cases: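 index 0 to 10 in 10% steps of herbicidal effect with 10 meaning complete death and 0 below 10%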
[1] = system: Echinochloa oryzicola; test: Herbicidal activity by paddy field soil treatment (Test Example 1); settings: 1000 g of effective component per hectare, evaluated on day 21 after the treatment, criteria of Table 72
Method: (§1) Test for Determining Herbicidal Activity by Paddy Field Soil Treatment A 100 cm^2 wide plastic pot was filled with a paddy field soil and, after watering and shuffling, seeds of each of Echinochloa oryzicola, Monochoria vaginalis, and Scirpus juncoides Rocxb. were sowed and watered to a depth of 3 cm. On the next day, the wettable powder obtained in view of Formulation example 1 was diluted with water and applied on water surface. The application amount was 1000 g of effective component per hectare. After that, the plants were cultivated in a greenhouse, and on day 21 after the treatment, evaluation was made by the criteria of Table 72 for determining the herbicidal effects. [table]

[2] = system: Monochoria vaginalis; test: as above; settings: 1000 g of effective component per hectare, evaluated on day 21 after the treatment, criteria of Table 72
Method: as §1

[3] = system: Scirpus juncoides Rocxb.; test: as above; settings: applied on water surface, 1000 g of effective component per hectare, day 21 after the treatment
Method: as §1

[4] = system: A. retroflexus; test: Herbicidal activity by field soil treatment (Test example 2); settings: 1000 g effective component per hectare, day 21 after the treatment
Method: (§2) [table] Test for Determining Herbicidal Activity by Field Soil Treatment A 80 cm^2 wide plastic pot was filled with a field soil and seeds of each of Echinochloa crus-galli, foxtail, Indian millet, and A. retroflexus were sowed and then covered with soil. The wettable powder produced with reference to the Formulation example 1 was diluted water, and applied on the soil surface by using a small sprayer in an amount of 1000 liters per hectare so that the effective component is 1000 g per hectare. After that, the plants were cultivated in a greenhouse, and on day 21 after the treatment, evaluation was made by the criteria described in Table 72 for determining the herbicidal effects.

[5] = system: Echinochloa crus-galli; test: as above; settings: 1000 g effective component per hectare, day 21 after the treatment
Method: as §2

[6] = system: Indian millet; test: as above; settings: 1000 g effective component per hectare, day 21 after the treatment
Method: as §2

[7] = system: A. retroflexus; test: Herbicidal activity by field foliage treatment (Test example 3); settings: 1000 g effective component per hectare, day 14 after the treatment
Method: (§3) [table] Test for Determining Herbicidal Activity by Field Foliage Treatment A 80 cm^2 wide plastic pot was filled with a field soil and seeds of each of Indian millet and A. retroflexus were sowed and then incubated for 2 weeks in a green house. The wettable powder produced with reference to the Formulation example 1 was diluted water, and applied from the air to entire body of the plant as foliage treatment by using a small sprayer in an amount of 1000 liters per hectare so that the effective component is 1000 g per hectare. After that, the plants were cultivated in a greenhouse, and on day 14 after the treatment, evaluation was made by the criteria described in Table 72 for determining the herbicidal effects.

[8] = system: Indian millet; test: as above; settings: 1000 g effective component per hectare, day 14 after the treatment
Method: as §3

[9] = system: Echinochloa crus-galli; test: as above; settings: 1000 g effective component per hectare, day 14 after the treatment
Method: as §3, with “Test example 3” for “[table]”

SMILES | Herbicidal effects index number, Echinochloa oryzicola [1] | Herbicidal effects index number, Monochoria vaginalis [2] | herbicidal effect index, S. juncoides Rocxb. [3] | herbicidal effect index, Amaranthus retroflexus [4] | herbicidal effect index, Echinochloa crus-galli [5] | herbicidal effect index, Abutilon theophrasti [6] | herbicidal effect index, Amaranthus retroflexus [7] | herbicidal effect index, Abutilon theophrasti [8] | herbicidal effect index, Echinochloa crus-galli [9]
Cn1nc(C(=O)C2=C(O)CCCC2=O)c(=O)n(-c2ccc(Cl)cc2)c1=O [I-53] | 10 | 7 | 10 | 10 | 8 | 10 | 10 | 10 | 8
COc1cccc(-n2c(=O)c(C(=O)C3=C(O)CCCC3=O)nn(C)c2=O)c1 [I-61] | 8 | 10 | 10 | 10 | 8 | 10 | 10 | 10 | 9
Cn1nc(C(=O)C2=C(O)CCCC2=O)c(=O)n(-c2cccc(C(F)(F)F)c2)c1=O [I-64] | 10 | 10 | 10 | 10 | 10 | 10 | 10 | 10 | 10
Cn1nc(C(=O)C2=C(O)CCCC2=O)c(=O)n(-c2ccc(C(F)(F)F)cc2)c1=O [I-65] | 10 | 10 | 10 | 10 | 10 | 10 | 10 | 10 | 8
Cc1cc(C)cc(-n2c(=O)c(C(=O)C3=C(O)CCCC3=O)nn(C)c2=O)c1 [I-88] | 10 | 10 | 10 | 10 | 8 | 10 | 10 | 9 | 8
Cc1cc(F)cc(-n2c(=O)c(C(=O)C3=C(O)CCCC3=O)nn(C)c2=O)c1 [I-106] | 10 | 10 | 10 | 10 | 10 | 10 | 10 | 9 | 10
Cc1cccc(-n2c(=O)c(C(=O)C3=C(O)CCCC3=O)nn(C)c2=O)c1F [I-107] | 10 | 10 | 10 | 10 | 8 | 10 | 10 | 9 | 7
Cc1cccc(F)c1-n1c(=O)c(C(=O)C2=C(O)CCCC2=O)nn(C)c1=O [I-110] | 10 | 10 | 10 | 10 | 7 | 10 | 9 | 9 | 9
Cc1cc(-n2c(=O)c(C(=O)C3=C(O)CCCC3=O)nn(C)c2=O)ccc1F [I-115] | 10 | 10 | 10 | 9 | 9 | 9 | 10 | 10 | 10
COc1ccc(-n2c(=O)c(C(=O)C3=C(O)CCCC3=O)nn(C)c2=O)cc1Cl [I-119] | 9 | 10 | 10 | 10 | 8 | 9 | 10 | 9 | 9
COc1cc(Cl)cc(-n2c(=O)c(C(=O)C3=C(O)CCCC3=O)nn(C)c2=O)c1 [I-120] | 8 | 10 | 10 | 10 | 8 | 9 | 10 | 9 | 9
Cc1ccc(-n2c(=O)c(C(=O)C3=C(O)CCCC3=O)nn(C)c2=O)nc1 [I-182] |  | 8 | 9 | 10 | 7 | 10 | 9 | 9 | 8
Cn1nc(C(=O)C2=C(O)CCCC2=O)c(=O)n(-c2ccc(F)cc2)c1=S [I-480] | 10 |  | 10 | 10 | 8 | 10 | 10 | 10 | 9

— US8969554B2, “6-acyl-1,2,4-triazine-3,5-dione derivative and herbicides” (Kumiai Chemical Industry Co., Ltd., priority 2010, dated 2015)
